Read-outs that look alike come from different tables or passages of the source. Bounds are passed on as bounds.

Test [1] deals with Green Peach Aphid (Myzus Persicae). The test can be described thus: Insecticidal test for green peach aphid in foliar spray assay (col. MYZUPE). The class given is in vivo. As to conditions: Myzus persicae, 72 h, read-out: MYZUPE 200 ppm (Corrected % Control, rating). The procedure:
(§1) The compounds were tested against cotton aphid, green peach aphid, and sweet potato whitefly using procedures described in the following examples and reported in Table 2.
(§2) In each case of Table 2, the rating scale is as follows at 200 ppm.
Insecticidal Test for Green Peach Aphid (Myzus Persicae) in Foliar Spray Assay
Cabbage seedlings grown in 3-inch pots, with 2-3 small (3-5 cm) true leaves, were used as test substrate. The seedlings were infested with 20-50 green peach aphids (wingless adult and nymph) one day prior to chemical application. Four pots with individual seedlings were used for each treatment. Compounds (2 mg) were dissolved in 2 mL of acetone/methanol (1:1) solvent, forming stock solutions of 1000 ppm. The stock solutions were diluted 5× with 0.025% Tween 20 in H2O to obtain a test solution at 200 ppm. A hand-held Devilbiss sprayer was used for spraying a solution to both sides of cabbage leaves until runoff. Reference plants (solvent check) were sprayed with the diluent only. Treated plants were held in a holding room for three days at approximately 25° C. and 40% relative humidity (RH) prior to grading. Evaluation was conducted by counting the number of live aphids per plant under a microscope. Corrected % Control=100*(X−Y)/X • where X=No. of live aphids on solvent check plants • Y=No. of live aphids on treated plants

The test system of test [2] is Sweetpotato Whitefly-Crawler (Bemisia Tabaci). Kind of test: Insecticidal test for sweetpotato whitefly-crawler in foliar spray assay (col. BEMITA). The class given is in vivo. As to conditions: for pest or weed control at 200 ppm: Bemisia tabaci, read-out: BEMITA 200 ppm (Corrected % Control, rating). The procedure:
as §1, §2
Insecticidal Test for Sweetpotato Whitefly-Crawler (Bemisia Tabaci) in Foliar Spray Assay
Cotton plants grown in 3-inch pots, with 1 small (3-5 cm) true leaf, were used as test substrate. The plants were placed in a room with whitefly adults. Adults were allowed to deposit eggs for 2-3 days. After a 2-3 day egg-laying period, plants were taken from the adult whitefly room. Adults were blown off leaves using a hand-held Devilbiss sprayer (23 psi). Plants with egg infestation (100-300 eggs per plant) were placed in a holding room for 5-6 days at 82° F. and 50% RH for egg hatch and crawler stage to develop. Four cotton plants were used for each treatment. Compounds (2 mg) were dissolved in 1 mL of acetone solvent, forming stock solutions of 2000 ppm. The stock solutions were diluted 10× with 0.025% Tween 20 in H2O to obtain a test solution at 200 ppm. A hand-held Devilbiss sprayer was used for spraying a solution to both sides of cotton leaf until runoff. Reference plants (solvent check) were sprayed with the diluent only. Treated plants were held in a holding room for 8-9 days at approximately 82° F. and 50% RH prior to grading. Evaluation was conducted by counting the number of live nymphs per plant under a microscope. Insecticidal activity was measured by using Abbott's correction formula and presented in Table 2 (see col. “BEMITA”): Corrected % Control=100*(X−Y)/X • where X=No. of live nymphs on solvent check plants • Y=No. of live nymphs on treated plants Pesticidally Acceptable Acid Addition Salts, Salt Derivatives, Solvates, Ester Derivatives, Polymorphs, Isotopes and Radionuclides

In the case of `CSCC(C)C(=O)Nc1sc(-c2cncc(C)c2)nc1C` (stereo not shown) [Compound 171, 2-methyl-N-[4-methyl-2-(5-methyl-pyridin-3-yl)-thiazol-5-yl]-3-methylsulfanyl-propionamide], the pest or weed control at 200 ppm in test [1] (green peach aphid) is 80 to 100%; in test [2] (sweetpotato whitefly-crawler), less than 80%. On to `CCN(C(=O)c1cccs1)c1sc(-c2cccnc2)nc1Cl` [Compound 554], for which the pest or weed control at 200 ppm in test [1] (Abbott's correction formula) and in test [2] (Abbott's correction formula) was less than 80% each time.

As for `CCN(C(=O)C(CSC)C(=O)CCSC)c1sc(-c2cccnc2)nc1Cl` (stereo not shown) [Compound 496], the results for the pest or weed control at 200 ppm in test [1] (Abbott's correction formula) and in test [2] (Abbott's correction formula) were 80 to 100% and less than 80%, respectively. Take `CN(C(=O)CC[S+](C)[O-])c1sc(-c2cccnc2)nc1C(F)(F)F` (stereo not shown) [Compound 88]: the pest or weed control at 200 ppm in test [1] (green peach aphid) and in test [2] (sweetpotato whitefly-crawler) was 80 to 100% throughout. For `CSCC(C)C(=O)N(C(=O)C(C)C)c1sc(-c2cccnc2)nc1C` (stereo not shown) [Compound 183], the pest or weed control at 200 ppm in test [1] (green peach aphid) and in test [2] (sweetpotato whitefly-crawler) was 80 to 100% in each case.

For `CCCC(C)C(=O)N1CCCC(C(=O)N(C)c2sc(-c3cncc(F)c3)nc2C)C1` (stereo not shown) [Compound 582, 1-(2-methyl-pentanoyl)-piperidine-3-carboxylic acid [2-(5-fluoro-pyridin-3-yl)-4-methyl-thiazol-5-yl]-methyl-amide], the pest or weed control at 200 ppm in test [1] (Abbott's correction formula) and in test [2] (Abbott's correction formula) was 80 to 100% each time.

As for `CSCC(C)(C)C(=O)N(C)c1sc(-c2cncc(F)c2)nc1C` [Compound 39], the pest or weed control at 200 ppm in test [1] (green peach aphid) and in test [2] (sweetpotato whitefly-crawler) was 80 to 100% throughout. Take `CN(C(=O)CCS(C)(=O)=O)c1sc(-c2cccnc2)nc1Cl` [Compound 246]: the pest or weed control at 200 ppm in test [1] (green peach aphid) and in test [2] (sweetpotato whitefly-crawler) was 80 to 100% throughout.

As for `CCN(C(=O)c1cccnc1)c1sc(-c2cccnc2)nc1Cl` [Compound 571], the pest or weed control at 200 ppm in test [1] (Abbott's correction formula) is 80 to 100%; in test [2] (Abbott's correction formula), less than 80%. `CSCC(C)C(=O)N(C)c1sc(-c2cccnc2)nc1Br` (stereo not shown) [Compound 505]: the pest or weed control at 200 ppm in test [1] (Abbott's correction formula) and in test [2] (Abbott's correction formula) was 80 to 100% in each case.

Take `Cc1cc(C(=O)N(C)c2sc(-c3cccnc3)nc2Cl)ccn1` [Compound 407]: the pest or weed control at 200 ppm in test [1] (green peach aphid) was 80 to 100%; in test [2] (sweetpotato whitefly-crawler), less than 80%. Regarding `Cc1nc(-c2cccnc2)sc1N(C)C(=O)C1CCCN(C(=O)C(C)C)C1` (stereo not shown) [Compound 410], the pest or weed control at 200 ppm in test [1] (green peach aphid) and in test [2] (sweetpotato whitefly-crawler) was 80 to 100% each time.

As for `CCOC(=O)c1cncc(-c2nc(C)c(NC(=O)C(C)CSC)s2)c1` (stereo not shown) [Compound 170], the pest or weed control at 200 ppm in test [1] (green peach aphid) and in test [2] (sweetpotato whitefly-crawler) was less than 80% throughout. For `CSC(C)CC(=O)N(C)c1sc(-c2cncc(F)c2)nc1C` (stereo not shown) [Compound 213], the pest or weed control at 200 ppm in test [1] (green peach aphid) and in test [2] (sweetpotato whitefly-crawler) was 80 to 100% throughout. Consider `CSCCC(=O)N(C)c1sc(-c2cccnc2)nc1C(F)(F)F` [Compound 43], for which the pest or weed control at 200 ppm in test [1] (green peach aphid) and in test [2] (sweetpotato whitefly-crawler) was 80 to 100% throughout.

`CSCC(C)C(=O)N(C(=O)C(C)CSC)c1sc(-c2cncc(F)c2)nc1C` (stereo not shown) [Compound 188]: the pest or weed control at 200 ppm in test [1] (green peach aphid) and in test [2] (sweetpotato whitefly-crawler) was 80 to 100% throughout. Take `Cc1nc(-c2cccnc2)sc1N(C)C(=O)OC(C)(C)C(F)(F)F` [Compound 492]: the figures for the pest or weed control at 200 ppm in test [1] (Abbott's correction formula) and in test [2] (Abbott's correction formula) were less than 80% and 80 to 100%, respectively. On to `CCN(C(=O)C(C)C[S+](C)[O-])c1sc(-c2cccnc2)nc1Cl` (stereo not shown) [Compound 348], for which the pest or weed control at 200 ppm in test [1] (green peach aphid) and in test [2] (sweetpotato whitefly-crawler) was 80 to 100% each time. Turning to `Cc1nc(-c2cccnc2)sc1N(C)C(=O)C(CC(C)C)NC(=O)OC(C)(C)C` (stereo not shown) [Compound 283], the pest or weed control at 200 ppm in test [1] (green peach aphid) and in test [2] (sweetpotato whitefly-crawler) was less than 80% each time.

Take `CCN(C(=O)C1C[C@@H]1SC)c1sc(-c2cncc(F)c2)nc1Cl` (mixture of isomers) [Compound 448]: the pest or weed control at 200 ppm in test [1] (Abbott's correction formula) and in test [2] (Abbott's correction formula) was 80 to 100% throughout. Take `Cc1nc(-c2cccnc2)sc1N(C)C(=O)c1cscn1` [Compound 365]: the pest or weed control at 200 ppm was 80 to 100% in test [1] (green peach aphid) and less than 80% in test [2] (sweetpotato whitefly-crawler). For the compound `CN(C(=O)CC(C)(C)[S+](C)[O-])c1sc(-c2cccnc2)nc1Cl` (stereo not shown) [Compound 521], the results for the pest or weed control at 200 ppm in test [1] (Abbott's correction formula) and in test [2] (Abbott's correction formula) were 80 to 100% and less than 80%, respectively. On the same counts, the results for `CCN(C(=O)CCSC)c1sc(-c2cccnc2)nc1Br` [Compound 458] are 80 to 100% and 80 to 100%. Turning to `CN(C(=O)C1(C)CC1)c1sc(-c2cccnc2)nc1Cl` [Compound 566], the pest or weed control at 200 ppm in test [1] (Abbott's correction formula) and in test [2] (Abbott's correction formula) was 80 to 100% in each case. Consider `CSCCC(=O)N(C)c1sc(-c2cncc(Cl)c2)nc1Cl` [Compound 500], for which the pest or weed control at 200 ppm in test [1] (Abbott's correction formula) and in test [2] (Abbott's correction formula) was 80 to 100% in each case. As to `CC(C(=O)N(C)c1sc(-c2cccnc2)nc1Cl)C(C)[S+](C)[O-]` (stereo not shown) [Compound 522], the values for the pest or weed control at 200 ppm in test [1] (Abbott's correction formula) and in test [2] (Abbott's correction formula) were 80 to 100% and less than 80%, respectively.

On to `CCN(C(=O)C(C)c1ccc(Cl)cc1)c1sc(-c2cccnc2)nc1Cl` (stereo not shown) [Compound 540], for which the pest or weed control at 200 ppm in test [1] (Abbott's correction formula) and in test [2] (Abbott's correction formula) was 80 to 100% in each case. `CCN(C(=O)Cc1ccc(C(C)=O)s1)c1sc(-c2cccnc2)nc1Cl` [Compound 557]: the pest or weed control at 200 ppm in test [1] (Abbott's correction formula) and in test [2] (Abbott's correction formula) was less than 80% each time. Regarding `CC(CC(=O)N(C)c1sc(-c2cccnc2)nc1Cl)[S+](C)[O-]` (stereo not shown) [Compound 520], the pest or weed control at 200 ppm in test [1] (Abbott's correction formula) is 80 to 100%; in test [2] (Abbott's correction formula) it was less than 80%.

For the compound `CCN(C(=O)CCSC)c1sc(-c2cccnc2)nc1Cl` [Compound 313, N-(4-chloro-2-pyridin-3-yl-thiazol-5-yl)-N-ethyl-3-methylsulfanyl-propionamide], the pest or weed control at 200 ppm in test [1] (green peach aphid) and in test [2] (sweetpotato whitefly-crawler) was 80 to 100% throughout.

As for `CSCC(C)(C)C(=O)Nc1sc(-c2cccnc2)nc1C(F)(F)F` [Compound 135], the results for the pest or weed control at 200 ppm in test [1] (green peach aphid) and in test [2] (sweetpotato whitefly-crawler) were 80 to 100% and less than 80%, respectively. `CC(=O)c1ccc(C(=O)Nc2sc(-c3cccnc3)nc2C)s1` [Compound 347]: the pest or weed control at 200 ppm in test [1] (green peach aphid) and in test [2] (sweetpotato whitefly-crawler) was less than 80% throughout. Take `CN(C(=O)C1CC[S+]([O-])C1)c1sc(-c2cccnc2)nc1Cl` (stereo not shown) [Compound 523]: the pest or weed control at 200 ppm in test [1] (Abbott's correction formula) is 80 to 100%; in test [2] (Abbott's correction formula), less than 80%. On the same counts, the results for `Cc1nc(-c2cccnc2)sc1N(CC1CC1)C(=O)OC(C)(C)C` [Compound 462] are 80 to 100% and less than 80%. For the compound `C=CC(=O)N(CC)c1sc(-c2cccnc2)nc1Cl` [Compound 535], the pest or weed control at 200 ppm in test [1] (Abbott's correction formula) is less than 80%; in test [2] (Abbott's correction formula), 80 to 100%. For `Cc1nc(-c2cccnc2)sc1N(C)C(=O)C(NC(=O)OC(C)(C)C)C(C)C` (stereo not shown) [Compound 311], the pest or weed control at 200 ppm in test [1] (green peach aphid) lay in the range of 80 to 100%. The same measure, in the same setting: next, `Cc1nc(-c2cccnc2)sc1N(C)C(=O)[C@@H](COCc1ccccc1)NC(=O)OC(C)(C)C` [Compound 310]: less than 80%.

With `Cc1nc(-c2cccnc2)sc1N(C)C(=O)C1CCN1C(=O)OC(C)(C)C` (stereo not shown) [Compound 338], the “BEMITA 200 ppm (Corrected % Control, rating)” value in test [2] (sweetpotato whitefly-crawler) is listed as “A (80-100)”. On to `Cc1nc(-c2cncnc2)sc1N(C)C(=O)OC(C)(C)C` [Compound 11, Methyl-(4-methyl-2-pyrimidin-5-yl-thiazol-5-yl)-carbamic acid tert-butyl ester], for which the pest or weed control at 200 ppm in test [1] (green peach aphid) was less than 80%.

On to `CSCC(C)C(=O)N(C)c1sc(-c2cnc(Cl)c(F)c2)nc1Cl` (stereo not shown) [Compound 473], for which, in test [2] (Abbott's correction formula), the pest or weed control at 200 ppm is less than 80%. As to `Cc1nc(-c2cncnc2)sc1NC(=O)OC(C)(C)C` [Compound 8, (4-Methyl-2-pyrimidin-5-yl-thiazol-5-yl)-carbamic acid tert-butyl ester], in test [1] (green peach aphid), the pest or weed control at 200 ppm lay within 80 to 100%.

The values above are taken from US8853246B2 (Dow AgroSciences LLC, priority 2009, dated 2014).
